Experimental data as given in ChEMBL document CHEMBL4316584, “All that glitters is not gold: Panning cytotoxic natural products and derivatives with a fused tricyclic backbone by the estimation of their leadlikeness for cancer treatment” (Eur J Med Chem, 2019).

What was measured:
Format in all cases: functional, cell-based
[1] = system: HeLa; test: Cytotoxicity against human HeLa cells by MTT assay
[2] = system: BGC-823; test: Cytotoxicity against human BGC823 cells after 48 hrs by MTT assay; conditions: BGC-823, 48 h
[3] = system: MDA-MB-231; test: Cytotoxicity against human MDA-MB-231 cells after 48 hrs by MTT assay; conditions: MDA-MB-231, 48 h
[4] = system: K562; test: Cytotoxicity against human K562 cells after 48 hrs by MTT assay; conditions: K562, 48 h
[5] = system: HepG2; test: Cytotoxicity against human HepG2 cells after 48 hrs by MTT assay; conditions: HepG2, 48 h
[6] = system: HL-60; test: Cytotoxicity against human HL60 cells after 48 hrs by MTS assay; conditions: HL-60, 48 h
[7] = system: HepG2; test: Cytotoxicity against human HepG2 cells after 44 hrs by MTT assay; conditions: HepG2, 44 h
[8] = system: KB; test: Cytotoxicity against human KB cells after 48 hrs by MTT assay
[9] = system: HT-29; test: Cytotoxicity against human HT-29 cells after 48 hrs by MTS assay; conditions: HT-29, 48 h
[10] = system: HL-60; test: Cytotoxicity against human HL60 cells after 48 hrs by MTT assay; conditions: HL-60, 48 h
[11] = system: A549; test: Cytotoxicity against human A549 cells after 48 hrs by MTS assay; conditions: A549, 48 h

**Q.** With CCn1c2cc(OC)ccc2c2ccnc(C)c21 as the compound, how does the IC50 [1] read?
**A.** 17 µM

**Q.** How did the IC50 [2] turn out when CC(C)=CCc1c(O)cc2oc3cc(O)ccc3c(=O)c2c1O was run?
**A.** 12.1 µM

**Q.** With O=c1c2ccc(O)c(O)c2oc2cccc(O)c12 as the compound, how does the IC50 [2] read?
**A.** 10.1 µM

**Q.** N#CC1=C(N)Oc2c(ccc3ccccc23)C1c1cccc([N+](=O)[O-])c1 (stereo not given) was tested. Which IC50 [3] did it give?
**A.** 18.1 µM

**Q.** For CC(C)c1cc2c(cc1O)[C@@]1(C)CCCC(C)(C)[C@@H]1C(=O)C2, which IC50 [4] is on record?
**A.** 15.9 µM

**Q.** How did the IC50 [1] turn out when CCOC(=O)c1cc2c3ccccc3n(Cc3ccccc3)c2cn1 was run?
**A.** 13 µM

**Q.** With O=c1c2ccc(O)cc2oc2cc(O)ccc12 as the compound, how does the IC50 [2] read?
**A.** 12.9 µM

**Q.** Which IC50 [3] does the source give for Cc1cc(O)c2c(c1)C(=O)c1cc(O)c(CN3CCCCC3)c(O)c1C2=O here?
**A.** 12.3 µM

**Q.** Which IC50 [5] does the source give for CCCCCCOc1cccc2c1C(=O)c1c(OCCCCCC)cc(Cn3cc(C)c(=O)[nH]c3=O)cc1C2=O here?
**A.** 4.2 µM

**Q.** c1ccc2c(c1)ncn2CCCn1c2ccccc2c2ccccc21 was tested. Which IC50 [6] did it give?
**A.** 7.91 µM

**Q.** How did the IC50 [6] turn out when Cc1cc2ncn(CCCCCn3c4ccccc4c4ccccc43)c2cc1C was run?
**A.** 14.7 µM

**Q.** With N#CC1=C(N)Oc2ccc3ccccc3c2C1c1ccc(Br)cc1 (stereo not given) as the compound, how does the IC50 [3] read?
**A.** 6.1 µM

**Q.** How did the IC50 [5] turn out when CCCNC1=CC(=O)c2c(O)c3c(c(O)c2C1=O)C[C@](C)(O)[C@H](O)C3 was run?
**A.** 9.98 µM

**Q.** How did the IC50 [7] turn out when O=C(O)c1cc(O)c2c(c1)C(=O)c1c(O)cccc1C2=O was run?
**A.** 16.3 µM

**Q.** With Cc1ccc(C2C3=C(CC(C)(C)CC3=O)N(c3ccc(Cl)cc3)C3=C2C(=O)CC(C)(C)C3)cc1 as the compound, how does the IC50 [5] read?
**A.** 9.34 µM

**Q.** CC(=O)Oc1cc(OC(C)=O)c2c(c1)C(=O)c1cc(C(=O)O)cc(OC(C)=O)c1C2=O was tested. Which IC50 [3] did it give?
**A.** 8.1 µM

**Q.** For N#CC1=C(N)Oc2c(ccc3ccccc23)C1c1ccc(Cl)cc1 (stereo not given), which IC50 [8] is on record?
**A.** 14.7 µM

**Q.** Clc1ccc(-c2nc(Cn3cc(COc4ccc(Br)cc4)nn3)cc3c2[nH]c2ccccc23)cc1 was tested. Which IC50 [9] did it give?
**A.** 15.6 µM

**Q.** How did the IC50 [5] turn out when C[C@]1(O)Cc2c(O)c3c(c(O)c2C[C@H]1O)C(=O)C=C(NCc1ccccc1)C3=O was run?
**A.** 13.4 µM

**Q.** How did the IC50 [6] turn out when c1ccc2c(c1)c1ccccc1n2CCCCCn1ccnc1 was run?
**A.** 14.4 µM

**Q.** Which IC50 [3] does the source give for CCOC(=O)C(C)(C)Oc1cc(O)c2c(c1)C(=O)c1cc(C)cc(O)c1C2=O here?
**A.** 7.72 µM

**Q.** With CN(C)CCNC1=CC(=O)c2c(O)c3c(c(O)c2C1=O)C[C@](C)(O)[C@H](O)C3 as the compound, how does the IC50 [5] read?
**A.** 2.26 µM

**Q.** Which IC50 [4] does the source give for CCn1c2c(c3ccccc31)CCC(CN1CCOCC1)C2=O (stereo not given) here?
**A.** 13.8 µM

**Q.** With N#CC1=C(N)Oc2c(ccc3ccccc23)C1c1ccc([N+](=O)[O-])cc1 (stereo not given) as the compound, how does the IC50 [8] read?
**A.** 20 µM

**Q.** Which IC50 [10] does the source give for CC(CO)c1cc2c(cc1O)[C@@]1(C)CCCC(C)(C)[C@@H]1CC2 (stereo not given in full) here?
**A.** 16.2 µM

**Q.** How did the IC50 [11] turn out when Cc1cc2ncn(CCCCn3c4ccccc4c4ccccc43)c2cc1C was run?
**A.** 19.4 µM

**Q.** How did the IC50 [4] turn out when C=CCn1c2c(c3ccccc31)CCC(CN(C)C)C2=O (stereo not given) was run?
**A.** 3.29 µM

**Q.** Which IC50 [9] does the source give for COc1ccc(-c2nc(Cn3cc(CN4C(=O)c5cccc6cccc(c56)C4=O)nn3)cc3c2[nH]c2ccccc23)cc1OC here?
**A.** 7.46 µM

**Q.** Which IC50 [1] does the source give for CCn1c2ccccc2c2cc(C(=O)OC)ncc21 here?
**A.** 17 µM

**Q.** CN(C)CC1CCc2c(n(C)c3ccccc23)C1=O (stereo not given) was tested. Which IC50 [4] did it give?
**A.** 17.3 µM
